Data as given in patent publication US20250269031A1, “MITOCHONDRIA TARGETING QUINOLINIUM-DRUG CONJUGATES AND THEIR SELF-ASSEMBLING NANOFORMULATIONS FOR CANCER THERAPY” (THE REGENTS OF THE UNIVERSITY OF CALIFORNIA, priority 2020, published 2025).
Read-outs that look alike come from different tables or passages of the source.

What was measured:
CSC cells [1] = test: Mitochondria membrane potential (JC-1), CSC; assay type: cell-based; details: 24 h
Protocol: Mitochondria membrane potential. JC-1 dye was used as an indicator of mitochondrial membrane potential. Briefly, Cells (2×10^4 cells per well) were treated as indicated for 24 h, washed and cultured with fresh medium. Then 0.5 μg/mL JC-1 was added for another 30 min incubation. Images were captured by CLSM.

[2] = tested on: CSC spheres (with Stella cell); test: Sphere growth, CSC spheres with Stella cell; assay type: cell-based; details: 5 μM
Protocol: Sphere growth. […] CSC cells (800 cells per well) and stella cells (400 cells per well) were plated together in 96-well low-attachment plates and incubated overnight. CSC spheres then were treated with different agents as indicated. Spheres growth was monitored by CLSM (every two days).

CSC cells [3] = test: Seahorse assay (oxygen consumption rate); assay type: cell-based; details: 24 h
Protocol: Seahorse assay. CSC cells (2×10^4 cells per well) were treated as indicated for 24 h. The Oxygen Consumption Rate (OCR) were measured by the Agilent Seahorse XF analyzer.

[4] = tested on: Pancreatic cancer stem cells (CSC); test: Cell viability assay, pancreatic cancer stem cells; assay type: cell-based
Protocol: Cell viability assay. Pancreatic cancer stem cells (CSC, 5×10^3 cells per well) was plated in 96-well plates, incubated overnight, and then were treated with different concentrations of agents as indicated. After 72 h treatment, cell viability was quantified using the CellTiter-Glo assay Cell viability curves and the chemical structures of LM, LND, and m104 are shown in FIG. 31A and FIG. 31B.

Bxpc-3 and AsPc cells = test: Cell viability, Bxpc-3 and AsPc; assay type: cell-based; details: 72 h treatment
Protocol: Cell viability. Bxpc-3 and AsPc cells (CSC, 5×10^3 cells per well) was plated in 96-well plates, incubated overnight, and then were treated with different concentrations of agents as indicated. After 72 h treatment, cell viability was quantified using the CellTiter-Glo assay.

[5] = tested on: Pancreatic cancer stem cells; test: Sphere formation; assay type: cell-based; details: 5 μM, 10 days
Protocol: Pancreatic cancer stem cells (3000 cells per well) were mixed with matrigel and medium, and then placed in 24-well plates with pre-embedded matrigel and medium. After 24 h incubation, CSC cells were then treated with different agents as indicated and cultured for 10 days. The cells were imaged as shown in FIG. 33A and the sphere diameters were calculated by ImageJ and are plotted in FIG. 33B.

[6] = tested on: Pancreatic cancer stem cells; test: Cell growth assay; assay type: cell-based; details: 2 μM
Protocol: Cell growth. Pancreatic cancer stem cells were plated in 6-well plates (50,000 cell per well) and treated as indicated and were counted manually every 24 h. The cell growth is plotted over time in FIG. 31C.

OSC-3 cells [7] = test: Mitochondrial membrane potential assay (JC-1); assay type: cell-based; details: 1 μM, with light
Protocol: The mitochondrial membrane potential was determined using the dye JC-1 as a probe (Thermo Fisher Scientific, USA). Briefly, OSC-3 cells (2×10^4 cells per well) were treated with drugs (1 μM) for 24 h. […] JC-1 (5 μg mL^−1) was added to incubate for 20 min. Cell imaging was performed on a CLSM (Carl Zeiss, Germany). The ratio of red/green fluorescence intensity was calculated by ImageJ software.

OSC-3 cells [8] = test: Colocalization assay (MitoTracker, LysoTracker, CLSM); assay type: cell-based; details: 2 μM, 4 h
Protocol: OSC-3 cells were treated with PQC NFs (2 μM) for various times (from 5 min to 8 h) or with PA (2 μM) for 4 h, followed by incubation with LysoTracker Green (Thermo Fisher Scientific, USA) and MitoTracker Red (Cell Signaling Technology, USA) for 30 min. Cells were visualized on confocal laser scanning microscopy (CLSM) (Carl Zeiss, Germany) immediately to investigate the subcellular localization. Signals of PQC NPs and PA were observed on the Cy5 channel. LysoTracker and MitoTracker were observed according the manufacturer's instructions. The corresponding Pearson correlation coefficient was calculated by ImageJ software.

OSC-3 cells [9] = test: Cell viability assay (CellTiter-Glo), OSC-3; assay type: cell-based; details: for IC50: read-out: IC50 cytotoxicity; for anticancer effect: OSC-3, with light, 0.3 μM to 1 μM
Protocol: OSC-3, BXPC-3, AsPC-1, PANC-1, UM-UC-3, 5637, or IMR90 cells were seeded in 96-well plates at a density of 5×10^3 cells per well and were grown overnight. Cells were incubated with various concentrations of drugs for 24 h, followed washing with PBS three times, and adding 100 μL fresh medium. For light-treated groups, cells were irradiated for 30 s using a 633-nm LED array (Omnilux new-U) at a power density of 30 mW cm^−2 at room temperature and then were cultured for another 24 h in parallel with non-light treated groups. Cell viability was quantified using the CellTiter-Glo assay (Promega, USA).

[10] = Characterization of PQC NFs (TEM, DLS); assay type: physicochemical
Protocol: Preparation and Characterization of PQC NFs: Briefly, PQC monomers in ethanol were added dropwise into deionized water under stirring. Ethanol in the solution was removed by vacuum rotary evaporation at 37° C. and the self-assembling PQC NFs were formed spontaneously. The aqueous nanofiber solution (0.02 mg mL^−1) was deposited on copper grids to prepare samples for transmission electron microscope (TEM). The morphology was observed by a Talos L120C TEM (Thermo Fisher Scientific, USA). The UV-Vis and fluorescence spectra were measured by a UV-Vis spectrometer (UV-1800, Shimadzu, Japan) and a fluorescence spectrometer (RF-6000, Shimadzu, Japan), respectively. NIR fluorescence imaging studies was performed by a ChemiDoc™ MP imaging system (Bio-Rad, USA). The ^1O2 production was detected using SOSG (Thermo Fisher Scientific, USA) as an indicator. Briefly, SOSG solution was added into drug solutions in 96 wells plate. […] Fluorescence intensity was determined by a microplate reader (Tecan, Switzerland). The ultrafiltration experiment of PQC NFs were conducted using a centrifuge (10k rpm, 10 min) and a centrifuge tube (10 kDa, Beckman Coulter, USA).

subcutaneous OSC-3 tumor [11] = test: In vivo fluorescence imaging, tumor retention; design: species or system nude mice; details: intratumoral injection, 10 nmol per 50 mm^3
Excerpt: (§1) Female athymic nude mice, 6-week-old, were purchased from Envigo (Indianapolis, IN, USA). All animal experiments were strictly performed in compliance with the protocol (#20265) approved by the Institutional Animal Care and Use Committee at the University of California, Davis. The subcutaneous and orthotopic tumor models were established by inoculated OSC-3 cells into both flanks (5×10^6 cells per tumor) or lower lips (1×10^6 cells per tumor) of nude mice. When the subcutaneous tumors reached about 80 mm^3 and orthotopic tumors reached about 50 mm^3, the mice started to be treated as indicated.
The subcutaneous tumor model was used in fluorescence imaging study in vivo of PA and PQC NFs. PA and PQC NFs (10 nmol per 50 mm^3 tumor) were administered by intratumoral injection. Fluorescence imaging were performed on a ChemiDoc™ MP imaging system (Bio-Rad, USA) at different time points post-injection.

OSC-3 cells [12] = test: Apoptosis assay (Annexin V-APC/PI); assay type: cell-based
Protocol: Apoptosis assay was performed with the Annexin V-APC/propidium iodide (PI) apoptosis kit (Biolegend, USA). […] […] Cells were stained with the apoptosis kit according to the manufacturer's instructions. All samples of cells were collected for flow cytometry using a BD FACSCanto flow cytometer (BD, USA). Data analysis was accomplished using FlowJo software.

OSC-3 cells [13] = test: Cell TEM study of mitochondria morphology; assay type: cell-based; details: 0.5 μM, 24 h
OSC-3 tumors = test: Intratumoral ROS production (DCF-DA, ex vivo imaging); assay type: in vivo, nude mice; details: laser at days 1, 2, 5, 6 post-injection
Protocol: Laser (680 nm) treatment was conduct by a laser device within an energy of 0.2 W cm^−2 for 6 min (Shanghai Xilong Optoelectronics Technology, China). Mice bearing subcutaneous and orthotopic tumors were randomly divided into four groups (n=6): Vehicle (PBS), DQA, PA, and PQC NFs. The drug was intratumorally injected into mice at a dose of 1 mM (10 nmol per 50 mm^3 tumor). Laser treatment was performed for a total of four times, one each on days 1, 2, 5, and 6 post-injection of drugs. The relative tumor value and body weight were recorded every two days. In subcutaneous models, the tumors in the right flank of mice were subjected to laser treatment, while the left tumors were not. In orthotopic models, all tumors were treated with the laser treatment. The temperature of tumor surface was monitored using a thermal camera (FLIR Systems, USA) immediately after laser treatment. ROS production in the tumor after light treatment was also measured using DCF-DA as an indicator. Briefly, the tumor was treated with different drugs via intratumoral injection at first. Then, the mice with tumors were treated with the laser at 1st, 2nd, 5th, and 6th day independently. […] The fluorescence intensity of DCF-DA was quantified by Image J software. […]

subcutaneous OSC-3 tumor [14] = test: In vivo anticancer study, subcutaneous oral cancer model; design: species or system nude mice; details: for H&E staining of tumors: 24 h drug, then laser; for antitumor effect: with laser; for antitumor efficacy: without laser
Excerpt: as §1
Laser (680 nm) treatment was conduct by a laser device within an energy of 0.2 W cm^−2 for 6 min (Shanghai Xilong Optoelectronics Technology, China). […] The drug was intratumorally injected into mice at a dose of 1 mM (10 nmol per 50 mm^3 tumor). Laser treatment was performed for a total of four times, one each on days 1, 2, 5, and 6 post-injection of drugs. The relative tumor value and body weight were recorded every two days. In subcutaneous models, the tumors in the right flank of mice were subjected to laser treatment, while the left tumors were not. In orthotopic models, all tumors were treated with the laser treatment. The temperature of tumor surface was monitored using a thermal camera (FLIR Systems, USA) immediately after laser treatment. ROS production in the tumor after light treatment was also measured using DCF-DA as an indicator. Briefly, the tumor was treated with different drugs via intratumoral injection at first. Then, the mice with tumors were treated with the laser at 1st, 2nd, 5th, and 6th day independently. After each light treatment, the mice were sacrificed immediately, and the obtained tumors were cut into small pieces and immersed in the DCF-DA solutions for 10 min. Finally, the tumors pieces were imaged by the ChemiDoc™ MP imaging system with the FITC channel. The fluorescence intensity of DCF-DA was quantified by Image J software. Mice were sacrificed after the first light treatment to obtain tumor and organs tissue for TEM, H&E, and IHC evaluation.

Molecule | CSC tumorsphere (with Stella cell) growth [2] | oxygen consumption rate (Mito stress test) (CSC cells [3]) | tumorsphere formation [5] | mitochondrial membrane potential change (JC-1) (OSC-3 cells [7]) | anticancer effect (OSC-3 cells [9]) | morphological changes in mitochondria (TEM) (OSC-3 cells [13]; with light) | H&E staining of tumors (subcutaneous OSC-3 tumor [14]) | antitumor effect (subcutaneous OSC-3 tumor [14]) | antitumor efficacy (subcutaneous OSC-3 tumor [14]) | also measured
Cc1cc(N)c2ccccc2[n+]1CCCCCCCCCCNC(=O)c1nn(Cc2ccc(Cl)cc2Cl)c2ccccc12 [LM] | inhibits CSC tumorsphere (with Stella cell) growth | decrease in basal mitochondrial respiration and spare respiration capacity | blocked tumorsphere formation in CSCs | – | – | – | – | – | – | mitochondrial membrane potential (JC-1) (CSC cells [1]): decreased Δψm; IC50 ([4]; 72 h): 0.46 ± 0.05 µM; potency on other pancreatic tumor cells (Bxpc-3 and AsPc cells): more potent than LND, m104, mixture of LND and m104; cell growth [6]: inhibitory effects
O=C(O)c1nn(Cc2ccc(Cl)cc2Cl)c2ccccc12 [LND, 1-(2,4-dichlorobenzyl)-1H-indazole-3-carboxylic acid] | no effect | no significant impact on OCRs | limited inhibition | – | – | – | – | – | – | IC50 ([4]; CSC, 72 h treatment, read-out: IC50): 30 ± 2.2 µM
pheophorbide a [PA] | – | – | – | not effective enough to cause a signal change | did not show obvious anticancer effects | only caused some mitochondrial swelling | only a small portion of tumor tissue showed apoptosis/necrosis | effectively inhibited tumor growth but did not shrink the tumors | did not show significant antitumor efficacy | subcellular colocalization (OSC-3 cells [8]): low-level colocalization with mitochondria or lysosomes; cytotoxicity (OSC-3 cells [9]; OSC-3, absence of light): did not show cytotoxicity even at 100 uM; IC50 (OSC-3 cells [9]; OSC-3, light treatment 30 mW cm^-2 for 30 s, 633 nm): 2.57 µM; surface charge [10]: −11.5±1.3 mV; fluorescence within tumors over time (subcutaneous OSC-3 tumor [11]): nearly undetectable at the 4th day post-injection; apoptosis induction (OSC-3 cells [12]; 0.2 μM, with light): failed to induce apoptosis; Annexin V positive population (OSC-3 cells [12]; 2 μM, 24 h, light, another 12 h): 19.3%; morphological changes in mitochondria (TEM) (OSC-3 cells [13]; without light): healthy mitochondria; ROS levels in tumors (OSC-3 tumors): high at 24 h post-injection and decreased quickly at later time points
Cc1cc(N)c2ccccc2[n+]1CCCCCCCCCC[n+]1c(C)cc(N)c2ccccc21 [DQA, dequalinium] | – | – | – | not effective enough to cause a signal change | did not show obvious anticancer effects | morphologically changed mitochondria with and without light treatment | no significant cell death | did not show an obvious antitumor effect | did not show significant antitumor efficacy | IC50 (OSC-3 cells [9]; OSC-3, absence of light, 24 h + 24 h): 3 µM
